For 3 compounds, activity, IC50 and inhibition results are on record in ChEMBL document CHEMBL4371069, “Click chemistry for improvement in selectivity of quinazoline-based kinase inhibitors for mutant epidermal growth factor receptors” (Bioorg Med Chem Lett, 2019).

Data set [1] deals with T1, CYP1A2 (Homo sapiens, UniProt P05177).
T1 sequence (P05177 whole entry): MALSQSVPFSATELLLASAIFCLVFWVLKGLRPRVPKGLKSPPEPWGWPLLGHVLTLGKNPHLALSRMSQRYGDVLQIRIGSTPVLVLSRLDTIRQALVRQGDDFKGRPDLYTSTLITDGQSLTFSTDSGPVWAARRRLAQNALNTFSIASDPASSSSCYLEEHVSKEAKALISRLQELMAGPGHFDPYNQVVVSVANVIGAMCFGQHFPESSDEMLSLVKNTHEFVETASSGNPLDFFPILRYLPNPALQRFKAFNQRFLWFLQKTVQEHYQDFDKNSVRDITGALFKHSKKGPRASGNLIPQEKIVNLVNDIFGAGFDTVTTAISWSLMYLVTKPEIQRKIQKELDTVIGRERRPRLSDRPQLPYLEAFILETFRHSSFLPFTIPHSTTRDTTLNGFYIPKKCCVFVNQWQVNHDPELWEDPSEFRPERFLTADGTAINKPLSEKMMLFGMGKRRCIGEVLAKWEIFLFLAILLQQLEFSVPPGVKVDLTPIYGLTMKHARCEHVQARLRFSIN
Nature of the data set: Inhibition of CYP1A2 in human liver microsomes assessed as residual activity at 10 uM using phenacetin as substrate preincubated for 5 mins followed by NADPH addition and measured after 15 mins by LC-MS/MS analysis relative to control. It is filed as ADME. The conditions noted are these: probe phenacetin, read-out: Activity.

Data set [2] concerns the target CYP2E1 (Homo sapiens, UniProt P05181). Kind of data set: Inhibition of CYP2E1 in human liver microsomes assessed as residual activity at 10 uM using chlorzoxazone as substrate preincubated for 5 mins followed by NADPH addition and measured after 15 mins by LC-MS/MS analysis relative to control. It is filed as ADME. To be noted: probe chlorzoxazone, read-out: Activity.

For data set [3], the target named is CYP2C9 (Homo sapiens, UniProt P11712). Nature of the data set: Inhibition of CYP2C9 in human liver microsomes assessed as residual activity at 10 uM using tolbutamide as substrate preincubated for 5 mins followed by NADPH addition and measured after 15 mins by LC-MS/MS analysis relative to control. It is filed as ADME. To be noted: probe tolbutamide, read-out: Activity.
Sequence of CYP2C9 (P11712 whole entry): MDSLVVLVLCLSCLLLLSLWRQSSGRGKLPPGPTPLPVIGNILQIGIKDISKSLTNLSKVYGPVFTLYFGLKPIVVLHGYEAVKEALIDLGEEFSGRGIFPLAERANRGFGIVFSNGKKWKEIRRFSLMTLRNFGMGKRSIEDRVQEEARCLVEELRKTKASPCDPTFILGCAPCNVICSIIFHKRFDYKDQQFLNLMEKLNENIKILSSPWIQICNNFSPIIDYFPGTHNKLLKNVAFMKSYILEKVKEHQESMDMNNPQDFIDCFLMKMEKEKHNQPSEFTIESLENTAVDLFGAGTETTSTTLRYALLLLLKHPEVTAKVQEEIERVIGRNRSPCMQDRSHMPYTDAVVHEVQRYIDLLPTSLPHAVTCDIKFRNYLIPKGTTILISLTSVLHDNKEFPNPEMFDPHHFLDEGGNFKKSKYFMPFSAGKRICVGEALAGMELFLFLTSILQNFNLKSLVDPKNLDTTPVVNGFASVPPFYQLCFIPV

The target in data set [4] is T2, CYP2A6 (Homo sapiens, UniProt P11509).
T2 sequence (P11509 whole entry): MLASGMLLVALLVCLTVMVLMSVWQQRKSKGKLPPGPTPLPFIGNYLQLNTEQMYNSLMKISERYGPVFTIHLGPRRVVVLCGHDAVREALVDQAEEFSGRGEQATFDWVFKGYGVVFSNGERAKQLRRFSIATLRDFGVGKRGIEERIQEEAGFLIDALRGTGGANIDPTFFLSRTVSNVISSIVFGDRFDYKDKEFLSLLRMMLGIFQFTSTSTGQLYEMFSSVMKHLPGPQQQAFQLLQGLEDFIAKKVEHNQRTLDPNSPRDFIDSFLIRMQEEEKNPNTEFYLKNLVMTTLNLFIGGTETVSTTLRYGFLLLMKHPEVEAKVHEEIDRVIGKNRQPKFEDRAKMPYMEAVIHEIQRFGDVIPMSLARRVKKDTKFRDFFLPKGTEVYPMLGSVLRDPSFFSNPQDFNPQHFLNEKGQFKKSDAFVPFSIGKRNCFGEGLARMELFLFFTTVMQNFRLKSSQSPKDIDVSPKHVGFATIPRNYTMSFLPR
Nature of the data set: Inhibition of CYP2A6 in human liver microsomes assessed as residual activity at 10 uM using coumarin as substrate preincubated for 5 mins followed by NADPH addition and measured after 15 mins by LC-MS/MS analysis relative to control. The class given is ADME. To be noted: probe coumarin, read-out: Activity.

For data set [5], the target named is T3, CYP2B6 (Homo sapiens, UniProt P20813).
T3 sequence (P20813 whole entry): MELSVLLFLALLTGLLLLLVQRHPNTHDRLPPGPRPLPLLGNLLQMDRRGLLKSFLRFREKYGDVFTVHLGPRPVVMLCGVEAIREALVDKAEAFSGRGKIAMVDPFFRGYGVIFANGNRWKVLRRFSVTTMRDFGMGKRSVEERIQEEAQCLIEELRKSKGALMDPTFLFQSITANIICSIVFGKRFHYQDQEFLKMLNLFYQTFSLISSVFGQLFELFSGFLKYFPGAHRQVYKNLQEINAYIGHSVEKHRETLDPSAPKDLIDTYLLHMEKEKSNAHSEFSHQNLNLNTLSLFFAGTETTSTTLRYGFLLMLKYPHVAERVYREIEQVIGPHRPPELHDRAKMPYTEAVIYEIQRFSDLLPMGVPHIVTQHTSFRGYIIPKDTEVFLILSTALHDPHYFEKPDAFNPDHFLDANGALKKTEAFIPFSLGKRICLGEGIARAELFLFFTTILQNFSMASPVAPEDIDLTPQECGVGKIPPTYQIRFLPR
Nature of the data set: Inhibition of CYP2B6 in human liver microsomes assessed as residual activity at 10 uM using bupropion as substrate preincubated for 5 mins followed by NADPH addition and measured after 15 mins by LC-MS/MS analysis relative to control. The conditions noted are these: probe bupropion, read-out: Activity. It is filed as ADME.

Data set [6] relates to HepG2. Nature of the data set: Cytotoxicity against human HepG2 cells after 24 hrs by LDH release assay. The class given is cell-based. To be noted: HepG2, 24 h.
Data set [7] has as its system A549. Kind of data set: Antiproliferative activity against human A549 cells harboring wild-type EGFR after 72 hrs by EZ-Cytox assay. The class given is ADME, cell-based. To be noted: A549, 72 h.
For data set [8], the target named is hERG (KCNH2) (Homo sapiens, UniProt Q12809). Kind of data set: Inhibition of human ERG expressed in HEK cell at 10 uM at -70 mV holding potential by patch clamp method relative to control. The conditions noted are these: HEK cells that express hERG.
Sequence of hERG (KCNH2) (Q12809 whole entry): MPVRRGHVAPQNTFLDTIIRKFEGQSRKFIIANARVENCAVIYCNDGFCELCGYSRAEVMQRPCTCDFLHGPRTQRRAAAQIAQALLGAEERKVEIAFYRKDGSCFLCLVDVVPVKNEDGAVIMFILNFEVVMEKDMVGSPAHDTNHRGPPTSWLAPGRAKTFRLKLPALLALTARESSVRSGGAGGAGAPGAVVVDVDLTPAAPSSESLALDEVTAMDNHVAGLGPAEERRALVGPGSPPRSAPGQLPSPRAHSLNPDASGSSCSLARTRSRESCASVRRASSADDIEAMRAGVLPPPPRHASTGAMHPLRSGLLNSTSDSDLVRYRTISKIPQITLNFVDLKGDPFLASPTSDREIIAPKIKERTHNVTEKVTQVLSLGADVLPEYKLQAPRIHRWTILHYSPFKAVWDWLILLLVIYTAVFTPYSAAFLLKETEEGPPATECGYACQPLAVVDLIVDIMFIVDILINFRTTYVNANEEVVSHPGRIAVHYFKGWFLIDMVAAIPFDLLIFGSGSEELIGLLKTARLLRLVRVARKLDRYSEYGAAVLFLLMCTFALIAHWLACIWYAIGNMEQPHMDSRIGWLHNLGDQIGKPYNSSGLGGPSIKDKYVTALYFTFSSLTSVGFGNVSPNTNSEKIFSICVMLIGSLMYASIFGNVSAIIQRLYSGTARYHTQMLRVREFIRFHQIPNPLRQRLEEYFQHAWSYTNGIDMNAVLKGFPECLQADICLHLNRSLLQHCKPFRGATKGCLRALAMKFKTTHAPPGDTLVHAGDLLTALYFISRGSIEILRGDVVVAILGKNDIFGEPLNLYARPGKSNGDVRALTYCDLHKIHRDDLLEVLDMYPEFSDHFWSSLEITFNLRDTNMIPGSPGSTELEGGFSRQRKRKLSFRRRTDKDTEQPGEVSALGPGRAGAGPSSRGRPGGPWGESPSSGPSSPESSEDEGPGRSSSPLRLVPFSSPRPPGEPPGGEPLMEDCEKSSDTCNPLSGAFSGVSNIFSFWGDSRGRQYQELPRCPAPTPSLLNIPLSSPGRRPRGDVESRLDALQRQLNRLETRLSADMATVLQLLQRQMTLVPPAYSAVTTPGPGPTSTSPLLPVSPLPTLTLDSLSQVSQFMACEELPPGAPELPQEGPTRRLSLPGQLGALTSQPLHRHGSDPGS
The target in data set [9] is Receptor tyrosine-protein kinase erbB-2 (Homo sapiens, UniProt P04626). Kind of data set: Inhibition of human C-terminal His6-tagged ERBB2 (676 to end residues) expressed in baculovirus infected sf21 cells using poly(Glu, Tyr) 4:1 as substrate.
Sequence of Receptor tyrosine-protein kinase erbB-2 (P04626 whole entry): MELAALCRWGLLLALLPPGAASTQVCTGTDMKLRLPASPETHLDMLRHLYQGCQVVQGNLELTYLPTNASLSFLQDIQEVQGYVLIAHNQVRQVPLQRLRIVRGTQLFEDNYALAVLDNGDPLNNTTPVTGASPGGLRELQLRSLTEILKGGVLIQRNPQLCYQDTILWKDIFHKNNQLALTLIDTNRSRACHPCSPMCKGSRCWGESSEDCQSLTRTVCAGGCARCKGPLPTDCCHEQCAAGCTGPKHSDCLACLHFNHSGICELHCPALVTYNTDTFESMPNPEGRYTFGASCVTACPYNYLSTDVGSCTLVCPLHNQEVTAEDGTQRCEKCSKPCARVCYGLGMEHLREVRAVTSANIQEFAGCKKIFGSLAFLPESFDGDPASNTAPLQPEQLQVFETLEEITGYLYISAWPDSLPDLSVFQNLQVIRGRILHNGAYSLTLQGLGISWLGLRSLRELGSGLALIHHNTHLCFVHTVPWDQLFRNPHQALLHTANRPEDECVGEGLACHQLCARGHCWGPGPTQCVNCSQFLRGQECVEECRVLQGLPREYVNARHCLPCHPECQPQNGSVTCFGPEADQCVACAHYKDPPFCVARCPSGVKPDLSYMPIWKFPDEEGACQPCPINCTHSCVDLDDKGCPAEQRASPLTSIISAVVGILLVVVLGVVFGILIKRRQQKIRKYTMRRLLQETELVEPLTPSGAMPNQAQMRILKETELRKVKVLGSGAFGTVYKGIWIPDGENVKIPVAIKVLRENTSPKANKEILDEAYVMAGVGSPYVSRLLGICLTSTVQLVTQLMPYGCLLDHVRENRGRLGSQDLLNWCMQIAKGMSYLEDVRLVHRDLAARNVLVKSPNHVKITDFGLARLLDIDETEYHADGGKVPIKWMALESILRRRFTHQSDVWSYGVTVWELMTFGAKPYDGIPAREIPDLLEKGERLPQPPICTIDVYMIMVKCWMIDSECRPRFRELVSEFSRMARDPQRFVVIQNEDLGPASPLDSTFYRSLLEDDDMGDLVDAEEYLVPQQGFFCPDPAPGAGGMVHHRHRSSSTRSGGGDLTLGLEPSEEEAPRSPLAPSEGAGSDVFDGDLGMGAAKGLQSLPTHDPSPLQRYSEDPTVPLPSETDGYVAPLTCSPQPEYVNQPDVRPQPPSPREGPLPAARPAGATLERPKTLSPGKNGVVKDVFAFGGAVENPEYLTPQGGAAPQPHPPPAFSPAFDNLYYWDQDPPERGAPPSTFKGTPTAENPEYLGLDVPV
Data set [10] has as its target Epidermal growth factor receptor (Homo sapiens, UniProt P00533). The class given is ADME, cell-based, Sf21.
Description: Inhibition of human N-terminal GST-tagged EGFR kinase domain (696 to end residues) expressed in baculovirus infected sf21 cells using poly(Glu, Tyr) 4:1 as substrate

Sequence of Epidermal growth factor receptor (P00533 whole entry): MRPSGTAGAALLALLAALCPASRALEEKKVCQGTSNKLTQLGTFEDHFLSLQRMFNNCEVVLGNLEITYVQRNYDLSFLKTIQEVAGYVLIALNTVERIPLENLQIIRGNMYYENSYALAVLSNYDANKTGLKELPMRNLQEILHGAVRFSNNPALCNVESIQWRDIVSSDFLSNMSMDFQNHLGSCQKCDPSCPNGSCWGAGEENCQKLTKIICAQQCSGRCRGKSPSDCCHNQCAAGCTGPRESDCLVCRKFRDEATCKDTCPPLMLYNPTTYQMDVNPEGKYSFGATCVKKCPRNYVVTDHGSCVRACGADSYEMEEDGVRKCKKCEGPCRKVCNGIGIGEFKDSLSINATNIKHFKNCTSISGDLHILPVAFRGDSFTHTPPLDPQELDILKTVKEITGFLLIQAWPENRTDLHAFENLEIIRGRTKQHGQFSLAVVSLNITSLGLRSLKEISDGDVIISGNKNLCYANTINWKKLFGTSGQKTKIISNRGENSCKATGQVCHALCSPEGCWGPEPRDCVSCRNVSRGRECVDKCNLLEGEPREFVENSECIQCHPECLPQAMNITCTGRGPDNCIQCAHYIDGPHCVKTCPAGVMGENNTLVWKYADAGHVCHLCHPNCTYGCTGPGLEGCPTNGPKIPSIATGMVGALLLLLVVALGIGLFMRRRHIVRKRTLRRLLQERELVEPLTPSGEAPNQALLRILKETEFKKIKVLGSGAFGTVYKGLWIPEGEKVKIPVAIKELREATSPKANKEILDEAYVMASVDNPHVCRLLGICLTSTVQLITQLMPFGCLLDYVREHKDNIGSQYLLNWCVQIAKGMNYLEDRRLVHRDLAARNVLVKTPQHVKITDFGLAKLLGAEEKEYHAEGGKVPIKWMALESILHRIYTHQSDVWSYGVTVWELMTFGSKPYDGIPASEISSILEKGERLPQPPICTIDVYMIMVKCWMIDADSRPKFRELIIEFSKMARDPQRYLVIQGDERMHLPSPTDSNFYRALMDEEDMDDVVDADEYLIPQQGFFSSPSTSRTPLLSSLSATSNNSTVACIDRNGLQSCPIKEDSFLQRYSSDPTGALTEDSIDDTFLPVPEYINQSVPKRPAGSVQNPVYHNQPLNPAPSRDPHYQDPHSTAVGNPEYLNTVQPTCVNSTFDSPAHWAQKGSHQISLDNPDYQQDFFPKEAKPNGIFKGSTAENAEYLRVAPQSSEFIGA
Sequence of CYP2E1 (P05181 whole entry): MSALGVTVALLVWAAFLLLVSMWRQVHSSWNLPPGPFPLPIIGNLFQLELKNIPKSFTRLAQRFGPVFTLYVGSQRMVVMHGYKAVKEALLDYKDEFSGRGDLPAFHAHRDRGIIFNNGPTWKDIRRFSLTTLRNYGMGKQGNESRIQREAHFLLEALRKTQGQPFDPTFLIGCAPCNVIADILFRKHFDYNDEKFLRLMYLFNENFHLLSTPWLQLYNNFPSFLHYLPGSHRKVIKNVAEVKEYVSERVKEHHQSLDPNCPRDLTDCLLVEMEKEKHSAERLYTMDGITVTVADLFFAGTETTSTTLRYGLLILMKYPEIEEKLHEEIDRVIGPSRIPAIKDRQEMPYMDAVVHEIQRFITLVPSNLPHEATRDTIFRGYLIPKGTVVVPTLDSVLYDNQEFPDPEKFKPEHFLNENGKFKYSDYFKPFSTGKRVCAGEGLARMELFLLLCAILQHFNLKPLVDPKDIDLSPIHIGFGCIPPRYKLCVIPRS

Consider `C=CC(=O)Nc1cc2c(Nc3ccc(F)c(Cl)c3)ncnc2cc1OCc1cn(Cc2ccc(F)cc2)nn1`, for which the activity at 0.25 h, 10 µM stood at 51.1% in data set [1]; 60.9% in [2]; 13.5% in data set [3]; 82.7% in data set [4]; 67.9% in data set [5]. Moreover, the IC50 was determined as 27 µM in data set [6], 4.31 µM in [7], 0.212 µM in data set [9] and 0.045 µM in data set [10]. For the same compound, the inhibition at 10 µM in [8] is 46.2%.
Regarding `C=CC(=O)Nc1cc2c(Nc3ccc(F)c(Cl)c3)ncnc2cc1OCc1cn(Cc2ccc(Cl)cc2)nn1`, the activity at 0.25 h, 10 µM in data set [1] worked out at 60.8%; in data set [2] it was 63.4%; in data set [3] it was 16.3%; in [4], 89%; in data set [5], 78.8%. Moreover, the IC50 in [6] came out at 60 µM; in [7], 2.04 µM; in [9], 0.225 µM; in data set [10], 0.062 µM. In addition, at 10 µM the inhibition in [8] was 33.6%.
For `C=CC(=O)Nc1cc2c(Nc3ccc(F)c(Cl)c3)ncnc2cc1OCc1cn(Cc2cccc(F)c2)nn1`, the activity at 0.25 h, 10 µM amounted to 52.5% in data set [1]; 59% in [2]; 11.8% in data set [3]; 91% in data set [4]; 67.1% in data set [5]. The IC50 in [6] came out at 29 µM; in [7] it was 5.5 µM; in data set [9], 0.209 µM; in data set [10], 0.068 µM. In [8], this compound displayed an inhibition at 10 µM of 20.7%.
